Laboratory results: patent US4874765A, “1,4-Disubstituted piperazines having dopaminergic activity” (Richter Gedeon Vegyeszeti Gyar, priority 1986, dated 1989)
Where two headings read alike, the source gives them in different places.

Legend:
[1] = system: dopaminergic system; conditions: cited from earlier work
[2] = system: dopaminergic system; conditions: cited from earlier work; remark: listed apart in the source
[3] = system: striatum dopamine level; experiment: Protection against MPTP-induced striatal dopamine decrease in mice; assay type: in vivo, male CFY mice; conditions: for inhibition in vivo at 100 µmol/kg: Mus musculus, 0.1 mmole/kg, 1 hour before MPTP 70 mg/kg s.c., striatum DA 72-96 hours after MPTP
Procedure: The dopaminergic activity of the compounds of the invention was determined by in vitro and in vivo animals tests. On the examination of the in vivo activity, the protective capability of the compounds against the neurotoxic effect of 1-methyl-4-phenyl-1,2,3,6-tetrahydropyridine (MPTP) was also studied. […] Davis et al.: Psychiat.
(§1) For these investigations male CFY mice (LATI, Godollo, Hungary) weighing 20-25 g were used. The compounds to be tested were homogenized in 1% Tween 80 solution and administered to the animals in a dose of 0.1 mmole/kg (in the route given in the Table) 1 hour before administering MPTP. MPTP was freshly dissolved in physiological saline solution and subcutaneously given to the mice in a dose of 70 mg/kg. 72 to 96 hours after the administration of MPTP the animals were killed by decapitation, their brain was rapidly removed, cooled in an ice-cold physiological saline solution, the striatum was excised and refrigerated in dry ice.
The tissues (in a refrigerated condition) were weighed and homogenized in 1 ml of 0.4N perchloric acid solution containing 0.5% of Na2 S2 O5, 0.25 % of Na2 EDTA and 100 ng of M-methyldopamine (internal standard for the determination of catecholamines) in an Ultra-Turrax equipment. The homogenate was centrifuged at 4° C. at 20,000 g for 10 minutes, then 0.8 ml of the supernatent was taken out. After adding 20 mg of activated aluminum oxide, the pH value of the solution was adjusted to 8 by adding 0.5M Tris solution and the tubes were shaken for 20 minutes. The aluminium oxide was settled, the supernatent was removed by suction and washed 3 times with 5 ml of distilled water each. The catecholamines adsorbed on the aluminium oxide were eluted with 1 ml of 0.05N perchloric acid. From a part of the eluate, dopamine was determined by using high pressure liquid chromatography by means of electrochemical detection (Labor MIM Oe-320 pump, 4×150 mm Nucleosil 5 C-18 analytical column and 4×20 mm Nucleosil 5 C-18 supplementary column; electrochemical detector fitted with a glassy-carbon working electrode and an Ag/AgCl2 reference electrode; Eltron potentiostat, LKB 2110 2-channel recorder; with an oxidation potential of 600 mV and as mobile phase 0.1M NaH2 PO4, 1 mM Na2 EDTA, 1 mM octanesulfonic acid containing 8.5% of acetonitrile; flow rate 1 ml/minute).
The protection against the dopamine decrease induced by MPTP was calculated as follows: [formula]
(§2) As a referenced drug, trihexyphenidyl hydrochloride (α-cyclohexyl-α-phenyl-1-piperidinepropanol hydrochloride) was used in a dose of 10 mg/kg (<0.1 mmole/kg).

[4] = dose higher than 10 mg/kg; mice
Procedure: as §1, §2

[5] = po, read-out: DA decrease induced by MPTP, % inhibition, p.o. route
[6] = ip, read-out: DA decrease induced by MPTP, % inhibition, i.p. route

| Compound | inhibition in vivo at 100 µmol/kg [3, 5] | inhibition in vivo at 100 µmol/kg [3, 6] | further results |
| --- | --- | --- | --- |
| CN1CC=C(c2ccccc2)CC1.Cl [MPTP, 1-methyl-4-phenyl-1,2,3,6-tetrahydropyridine hydrochloride] |  |  | selective dopaminergic system-damaging effect on mice [1]: selective dopaminergic system-damaging effect; degeneration of the dopaminergic system in men and monkeys [2]: causes the degeneration of the dopaminergic system |
| C=CCN1CCN(CCOC(c2ccccc2)c2ccc(F)cc2)CC1 (centres unmarked) [Compound 3, 1-[2-[(4-fluorophenyl)-phenylmethoxy]ethyl]-4-(2-propenyl)piperazine] | 100% |  |  |
| CCC(=O)N1CCN(CCOC(c2ccc(F)cc2)c2ccc(F)cc2)CC1 [Compound 14, 1-[2-[bis(4-fluorophenyl)methoxy]ethyl]-4-(1-oxo-propyl)piperazine] | 71% |  |  |
| CCCCCC(=O)N1CCN(CCOC(c2ccc(F)cc2)c2ccc(F)cc2)CC1 [Compound 11, 1-[2-[bis(4-fluorophenyl)methoxy]ethyl]-4-(1-oxo-hexyl)piperazine] |  | 82% |  |
| CCCCN1CCN(CCOC(c2ccccc2)c2ccc(Cl)c(Cl)c2)CC1 (centres unmarked) [Compound 15] |  | 98% |  |
| CCCCN1CCN(CCOC(c2ccc(F)cc2)c2ccc(F)cc2)CC1 [Compound 9, 1-[2-[bis(4-flurophenyl)methoxy]ethyl]-4-butyl-piperazine] |  | 100% |  |
| C=C(C)CN1CCN(CCOC(c2ccc(F)cc2)c2ccc(F)cc2)CC1 [Compound 13, 1-[2-[bis(4-fluorophenyl)methoxy]ethyl]-4-(2-methyl--2-propenyl)-piperazine] | 95% |  |  |
| C=CCN1CCN(CCOC(c2ccc(F)cc2)c2ccc(F)cc2)CC1 [Compound 1, 1-[2[bis(4-fluorophenyl)methoxy]ethyl]-4-(2-propenyl)-piperazine] | 100% | 98% |  |
| CCCCCCN1CCN(CCOC(c2ccc(F)cc2)c2ccc(F)cc2)CC1 [Compound 17, 1-[2-[bis(4-fluorophenyl)methoxy]ethyl]-4-hexyl-piperazine] | 89% |  |  |
| C=CCN1CCN(CCOC(c2ccccc2)c2ccc(Cl)c(Cl)c2)CC1 (centres unmarked) [Compound 7, 1-[2-[(3,4-dichlorophenyl)-phenylmethoxy]ethyl]--4-(2-propenyl)-piperazine] | 98% | 100% |  |
| CCCN1CCN(CCOC(c2ccc(F)cc2)c2ccc(Cl)cc2)CC1 (centres unmarked) [Compound 8, 1-[2-[(4-chlorophenyl)-(4-flurophenyl)methoxy]-ethyl]-4-propyl-piperazine] |  | 95% |  |
| C=CCN1CCN(CCOC(C)(c2ccc(F)cc2)c2ccc(F)cc2)CC1 [Compound 10, 1-[2-[1-bis(4-fluorophenyl)ethoxy]ethyl]-4-(2-propenyl)piperazine] |  | 89% |  |
| C=CCN1CCN(CCOC(c2ccc(Cl)cc2)c2ccc(Cl)cc2)CC1 [Compound 6, 1-[2-[bis(4-chlorophenyl)methoxy]ethyl]-4-(2-propenyl)piperazine] |  | 100% |  |
| C=CCN1CCN(CCOC(c2ccc(F)cc2)c2ccc(Br)cc2)CC1 (centres unmarked) [Compound 5, 1-[2-[(4-bromophenyl)-(4-fluorophenyl)methoxy]-ethyl]-4-(2-propenyl)piperazine] |  | 100% |  |
| CCCCN1CCN(CCOC(c2ccc(F)cc2)c2ccc(Cl)cc2)CC1 (centres unmarked) [Compound 16, 1-[2-[(4-chlorophenyl)-(4-fluorophenyl)methoxy]-ethyl]-4-butylpiperazine] | 86% |  |  |
| C=CCN1CCN(CCOC(c2ccc(F)cc2)c2ccc(Cl)cc2)CC1 (centres unmarked) [Compound 4, 1-[2-[(4-chlorophenyl)-(4-fluorophenyl)methoxy]-ethyl]-4-(2-propenyl)piperazine] |  | 100% |  |
| Cl.OC(CCN1CCCCC1)(c1ccccc1)C1CCCCC1 (stereo not drawn) [Trihexyphenidyl.HCl, α-cyclohexyl-α-phenyl-1-piperidinepropanol hydrochloride, reference compound] |  |  | lethality at doses above 10 mg/kg [4]: The animals perished on administration of a higher dose; DA decrease induced by MPTP, % inhibition, i.p. route (reference drug) ([3]; i.p., 10 mg/kg (<0.1 mmole/kg), before MPTP 70 mg/kg s.c.): 7% |
| CCCN1CCN(CCOC(c2ccc(F)cc2)c2ccc(F)cc2)CC1 [Compound 2] |  | 100% |  |
| C#CCN1CCN(CCOC(c2ccc(F)cc2)c2ccc(F)cc2)CC1 [Compound 12, 1-[2-[bis(4-fluorophenyl)methoxy]ethyl]-4-(2--propynyl)piperazine] | 94% |  |  |
